# Read-outs that look alike come from different tables or passages of the source.
# Assays:
# Type in all cases: in vivo
# [1] = tested on: ivyleaf morningglory (Ipomoea hederecea); experiment: Pre-emergent Test I herbicidal activity; conditions: 4 Kg ai/ha
# Protocol: (§1) Pre-emergent Test I Seeds of test species were planted into round plastic pots (5-inch diameter) containing sandy loam soil. After planting, all pots were sub-irrigated 16 h prior to compound application. Compounds were dissolved in a 97:3 v/v (volume/volume) mixture of acetone and dimethyl sulfoxide (DMSO) and diluted to the appropriate concentration in a final application solution containing water, acetone, isopropanol, DMSO and Agri-dex (crop oil concentrate) in a 59:23:15:1.0:1.5 v/v ratio and 0.02% w/v (weight/volume) of Triton X-155 to obtain the spray solution containing the highest application rate. The high application rate was serial diluted with the above application solution to provide delivery of the compound at rates 1/2×, 1/4× and 1/8× of the highest rate (equivalent to 4.0, 2.0, 1.0, and 0.5 kg/ha, respectively). Formulated compound (2.7 mL) was applied pipetted evenly over the soil surface followed by incorporation with water (15 mL). Following treatment, pots were returned to the greenhouse for the duration of the experiment. The greenhouse was programmed for an approximate 15 h photoperiod which was maintained at about 23-29° C. during the day and 22-28° C. during the night. Nutrients and water were added on a regular basis through surface irrigation and supplemental lighting was provided with overhead metal halide 1000-Watt lamps as necessary. Herbicidal effect ratings were obtained 14 days after treatment. All evaluations were made relative to appropriate controls on a scale of 0 to 100 where 0 represents no herbicidal effect and 100 represents plant death or lack of emergence from the soil.
# [2] = tested on: barnyardgrass (Echinochloa crs-galli); experiment: Pre-emergent Test I herbicidal activity; conditions: 4 Kg ai/ha
# Protocol: as §1
# [3] = tested on: giant foxtail (Setaria faberi); experiment: Pre-emergent Test I herbicidal activity; conditions: 4 Kg ai/ha
# Protocol: as §1
# [4] = tested on: sunflower (Helianthus annuus); experiment: Pre-emergent Test I herbicidal activity; conditions: 4 Kg ai/ha
# Protocol: as §1
# wild oats (Avena fatua) = experiment: Pre-emergent Test I herbicidal activity; conditions: 4 Kg ai/ha
# Protocol: as §1
# [5] = tested on: Key Broadleaf Weed and Crop Species; experiment: Post-emergent Test II herbicidal activity (Table 15); conditions: post-emergence, 336 h, 140 g ai/ha, 14 d
# Procedure, shortened: (§2)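 Plants grown in greenhouse (~15 h photoperiod, 23-29 °C day, 22-28 °C night) to first or second true leaf stage, then sprayed post-emergence at 187 L/ha with a high rate and 1/2×, 1/4×, 1/8× and 1/16× dilutions. Injury scored visually after 14 d, 0-100% versus untreated plants.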
# [6] = tested on: Key Grass and Sedge Weeds as well as Grass Crops; experiment: Post-emergent Test II herbicidal activity (Table 16); conditions: post-emergence, 336 h, 14 d; for pest or weed control at 35 g/ha: 35 g ai/ha; for pest or weed control at 70 g/ha: 70 g ai/ha; for pest or weed control at 140 g/ha: 140 g ai/ha
# Procedure, shortened: as §2
# [7] = Cyperus esculentus, yellow nutsedge (Cyperus esculentus), read-out: Visual Growth Reduction (%) 14 Days After Application, CYPES
# [8] = Echinochloa crus-galli, barnyardgrass (Echinochloa crus-galli), read-out: Visual Growth Reduction (%) 14 Days After Application, ECHCG
# [9] = Oryza sativa, rice (Oryza sativa), read-out: Visual Growth Reduction (%) 14 Days After Application, ORYSA
# [10] = Setaria faberi, giant foxtail (Setaria faberi), read-out: Visual Growth Reduction (%) 14 Days After Application, SETFA
# [11] = Triticum aestivum, wheat, spring (Triticum aestivum), read-out: Visual Growth Reduction (%) 14 Days After Application, TRZAS
# [12] = Zea mays, maize, corn (Zea mays), read-out: Visual Growth Reduction (%) 14 Days After Application, ZEAMX
smiles,measurement,setting,value
Nc1c(F)c(-c2cccc3cc[nH]c23)nc(C(=O)O)c1Cl [Compound 1.48],Visual Growth Reduction (%) 14 Days After Application IPOHE,[1],D (60-74)
same,"Visual Growth Reduction (%) 14 Days After Application, ECHCG",[2],G (0-29)
same,"Visual Growth Reduction (%) 14 Days After Application, SETFA",[3],G (0-29)
same,Visual Growth Reduction (%) 14 Days After Application HELAN,[4],C (75-84)
same,Visual Growth Reduction (%) 14 Days After Application AVEFA,wild oats (Avena fatua),G (0-29)
same,pest or weed control at 140 g/ha,"[5]; Abutilon theophrasti, velvetleaf (Abutilon theophrasti), read-out: Visual Growth Reduction (%) 14 Days After Application, ABUTH",0 to 29%
same,pest or weed control at 140 g/ha,"[5]; Amaranthus retroflexus, redroot pigweed (Amaranthus retroflexus), read-out: Visual Growth Reduction (%) 14 Days After Application, AMARE",0 to 29%
same,pest or weed control at 140 g/ha,"[5]; Brassica napus, oilseed rape, canola (Brassica napus), read-out: Visual Growth Reduction (%) 14 Days After Application, BRSNN",0 to 29%
same,pest or weed control at 140 g/ha,"[5]; Chenopodium album, lambsquarters (Chenopodium album), read-out: Visual Growth Reduction (%) 14 Days After Application, CHEAL",60 to 74%
same,pest or weed control at 140 g/ha,"[5]; Euphorbia heterophylla, wild poinsettia (Euphorbia heterophylla), read-out: Visual Growth Reduction (%) 14 Days After Application, EPHHL",0 to 29%
same,pest or weed control at 140 g/ha,"[5]; Helianthus annuus, sunflower (Helianthus annuus), read-out: Visual Growth Reduction (%) 14 Days After Application, HELAN",75 to 84%
same,pest or weed control at 35 g/ha,[6]; [7],0 to 29%
same,pest or weed control at 70 g/ha,[6]; [7],0 to 29%
same,pest or weed control at 140 g/ha,[6]; [7],0 to 29%
same,pest or weed control at 35 g/ha,[6]; [8],0 to 29%
same,pest or weed control at 70 g/ha,[6]; [8],0 to 29%
same,pest or weed control at 140 g/ha,[6]; [8],0 to 29%
same,pest or weed control at 35 g/ha,[6]; [9],0 to 29%
same,pest or weed control at 70 g/ha,[6]; [9],0 to 29%
same,pest or weed control at 140 g/ha,[6]; [9],0 to 29%
same,pest or weed control at 35 g/ha,[6]; [10],0 to 29%
same,pest or weed control at 70 g/ha,[6]; [10],0 to 29%
same,pest or weed control at 140 g/ha,[6]; [10],0 to 29%
same,pest or weed control at 35 g/ha,[6]; [11],0 to 29%
same,pest or weed control at 70 g/ha,[6]; [11],0 to 29%
same,pest or weed control at 140 g/ha,[6]; [11],0 to 29%
same,pest or weed control at 35 g/ha,[6]; [12],0 to 29%
same,pest or weed control at 70 g/ha,[6]; [12],0 to 29%
same,pest or weed control at 140 g/ha,[6]; [12],0 to 29%

# Reference: patent US20170050957A1, “4-AMINO-6-(HETEROCYCLIC)PICOLINATES AND 6-AMINO-2-(HETEROCYCLIC)PYRIMIDINE-4-CARBOXYLATES AND THEIR USE AS HERBICIDES” (Dow AgroSciences LLC, priority 2013, published 2017)
